Where “and” joins values, the source holds several entries; their conditions need not be identical. Identical values can stand only once. Where no end group is shown, it is not given here. Side-chain parts run from the residue outwards. rhodamine‑labelled PEGylated perfluoro‑15‑crown‑5 ether nanoemulsion = not defined here; carboxyfluorescein = N-terminal fluorescence label (CF)
Key:
[1] = system: murine blood leukocytes; assay: Ex vivo uptake of mNPPFCs/ConPFCs by murine immune cells, flow cytometry; format: cell-based, mouse; parameters: Basal mNPPFC Uptake, flow cytometry / Stimulated mNPPFC Uptake, flow cytometry: unit not given here; settings: for Stimulated mNPPFC Uptake, flow cytometry: LPS-stimulated conditions; for Stimulated mNPPFC Uptake, flow cytometry / Basal mNPPFC Uptake, flow cytometry: individual experiments; for Basal mNPPFC Uptake, flow cytometry: basal conditions
Procedure: Erythrocytes were lysed by adding a fourfold volume of NH4Cl buffer (pH 7.4). After 10 min of incubation, samples were centrifuged at 350g for 10 min at 20 °C. For isolation of neutrophils from the bone marrow, mice were killed by cervical dislocation, and bones were dissected. Afterward, cells were isolated from the bone marrow using established protocols.
Flow cytometry was performed with a FACSCanto II (BD Biosciences) or LSRFortessa (BD Biosciences). Cells were gated with appropriate FSC–SSC settings and thresholds for excluding debris. To omit dead cells, samples were stained with 1 µg ml^−1 DAPI (Merck). For analysis, cells were gated with FACSDiva 6 or FlowJo 7.1, and MFI and/or the number of positive cells was determined, depending on the experiment.
Human immune cells were discriminated by staining for CD45 (BioLegend, clone HI30), CD11b (BD Biosciences, clone ICRF44), CD14 (BioLegend, clone M5E2) and CD16 (BD Biosciences, clone 3G8) (lymphocytes, CD45^+CD11b^−CD16^−; classical monocytes, CD45^+CD11b^+CD14^++CD16^−; non-classical monocytes, CD45^+CD11b^+CD14^+CD16^++; neutrophils, CD45^+CD11b^+CD16^+). Murine immune cells were discriminated by staining for CD45 (BD Biosciences, clone 30-F11), CD11b (BioLegend, clone M1/70), Ly6G (BD Biosciences, clone 1A8), Ly6C (BioLegend, clone HK1.4) and F4/80 (BioLegend, clone BM8) (lymphocytes, CD45^+CD11b^−Ly6G^−; classical monocytes, CD45^+CD11b^+Ly6G^−Ly6C^hi; non-classical monocytes, CD45^+CD11b^+Ly6G^−Ly6C^lo; neutrophils, CD45^+CD11b^+Ly6G^+; eosinophils, CD45^+CD11b^+Ly6G^+SSC^hiFSC^lo). Both human and murine cells were stained for 20 min at 4 °C, followed by washing with 200 µl MACS buffer.
If not mentioned otherwise, neutrophil-specific peptide or Con (both at 1 µg ml^−1) were incubated for 20 min at 4 °C, while ^NPPFCs or ^ConPFCs were incubated at a concentration of 10 µl ml^−1 for the indicated period of time, followed by two washing steps with 200 µl MACS buffer.
A total of 1 × 10^6 cells were incubated with 10 µl of the emulsion over a period of 80 min at 37 °C. At distinct time points, 50 µl of the samples were transferred into 2 ml of ice-cold MACS buffer and analyzed for rhodamine fluorescence by flow cytometry.
Extended Data Fig. 2 Specific targeting of neutrophils by ^mNPPFCs. a, Flow cytometric analysis of murine blood leukocytes incubated with ^mNPPFCs over 80 min illustrating their predominant uptake by neutrophils (red) as compared to monocytes (blue) and lymphocytes (gray). b, To further validate specificity, binding of CD177 mAb as well as incorporation of ^mNPPFCs under basal and LPS-stimulated conditions were determined. Almost no binding/uptake into classical or non-classical monocytes as well as macrophages or eosinophils could be detected. […] Subsequently, cells were analyzed by ^1H/^19F MRI. Left: ^1H/^19F MRI of centrifugation tubes with neutrophils treated with ^mNPPFCs (lower panel) or ^ConPFCs (upper panel). The small neutrophil cell pellet is located at the bottom of the tube and can be identified by ^1H MRI (1st column) as slightly darker structure (arrows) compared to the bright phosphate buffer; corresponding ^19F MR images (2nd column) and superimposition of ^1H/^19F datasets (3rd column, with ^19F data color-coded in hot iron). Quantification of ^19F signals (4th column) clearly indicate substantial stronger ^19F uptake in ^mNPPFC-treated neutrophils (red) compared to cells incubated with ^ConPFCs (gray); a.u. = arbitrary units. Data are means ± SD of n = 4 (a), n = 6 (b), n = 6 (c) or n = 3-5 (d) independent experiments; * = […], ** = p < 0.01, *** = p < 0.001, verified by two-way ANOVA (a), one-way ANOVA (b) or two-sided students t-test (c, d). Source data

[2] = system: murine neutrophils; assay: Phagocytosis of FITC-labeled E. coli particles by murine neutrophils after mNPPFC injection; format: in vivo, mouse; settings: in the presence of the targeting PFCs
Procedure: […] per kg BW ^mNPPFCs or saline were injected i.v., followed by 100 µl FITC-labeled Escherichia coli particles (Thermo Fisher) 2 h later. […] Thereafter, FITC labeling was determined by flow cytometry.
Extended Data Fig. 9 Impact of ^mNPPFCs on murine neutrophils. a, Differentially expressed genes (DEGs) identified by bulk RNA sequencing of murine blood neutrophils after intravenous injection of ^mNPPFCs, ^ConPFCs or NaCl (Ctrl) as control. Volcano plots of DEGs for murine neutrophils of animals treated with saline compared to ^mNPPFCs (left), or ^ConPFCs compared to ^mNPPFC (right). […] BF = Bonferroni corrected p-values of the false discovery rate. In total 25655 RNA transcripts were analyzed. b, Cell surface expression of CD11b, CD62L, CD63 on blood derived murine neutrophils after intravenous application of NaCl (Ctrl) or ^mNPPFCs. As a positive control, matrigel doped with 50 µg LPS was subcutaneously implanted into the neck of mice and after 24 h, neutrophils were isolated from the blood and analyzed by flow cytometry. c, Impact of ^mNPPFC incubation on neutrophil migration, phagocytosis and release of reactive oxygen species (ROS). […]

[3] = system: bone marrow neutrophils; assay: In situ labeling of bone marrow neutrophils and tracking after MI, 1H/19F MRI of bone marrow; format: in vivo, mouse; settings: Depletion of neutrophils by Ly6G Ab injection 48 and 24 h prior to mNPPFC injection; 24 h after injection; individual experiments
[4] = ex vivo, murine blood, flow cytometry, panel A raw data, replicates #1-#3

mNPPFCs: PEGylated rhodamine-labeled perfluoro-15-crown-5 ether nanoemulsion (maleimide PFCs) coupled with murine neutrophil-specific peptide mNP (carboxyfluorescein-DFYKPMPNLRITGGGC([maleimide‑PEG2000‑DSPE-rhodamine‑labelled PEGylated perfluoro‑15‑crown‑5 ether nanoemulsion]); reading uncertain; also: printed as DFYKPMPNLRIT-GGG-C)
Stimulated mNPPFC Uptake, flow cytometry ([1]; classical monocytes): 968 and 1199 and 1888 and 792 and 1168 and 1582 | Basal mNPPFC Uptake, flow cytometry ([1]; classical monocytes): 1007 and 804 and 1494 and 1027 and 800 and 1292 | Stimulated mNPPFC Uptake, flow cytometry ([1]; eosinophils): 391 and 367 and 596 and 415 and 376 and 503 | Basal mNPPFC Uptake, flow cytometry ([1]; eosinophils): 880 and 341 and 789 and 755 and 384 and 656 | uptake of PFCs, lymphocytes [1, 4]: 97.9 and 103 and 102 | uptake of PFCs, monocytes [1, 4]: 212 and 348 and 265 | uptake of PFCs, neutrophils [1, 4]: 2972 and 1641 and 1658 | Stimulated mNPPFC Uptake, flow cytometry ([1]; macrophages): 1176 and 1188 and 969 and 1223 and 1090 and 1085 | Basal mNPPFC Uptake, flow cytometry ([1]; macrophages): 945 and 874 and 865 and 808 and 877 and 873 | Stimulated mNPPFC Uptake, flow cytometry ([1]; neutrophils): 17100 and 16383 and 15263 and 14366 and 16180 and 12939 | Basal mNPPFC Uptake, flow cytometry ([1]; neutrophils): 10186 and 7521 and 8652 and 6287 and 6135 and 7209 | Stimulated mNPPFC Uptake, flow cytometry ([1]; non classical monocytes): 277 and 303 and 242 and 252 and 281 and 240 | Basal mNPPFC Uptake, flow cytometry ([1]; non classical monocytes): 138 and 192 and 152 and 172 and 167 | phagocytosis by murine neutrophils [2]: unaltered | 19F signal within the femur and tibia (bone marrow) [3]: 519273 and 821555 and 523902 and 983614 and 347032
